The test has as its system lentiviral pseudovirus with SARS-CoV-2 spike D614G. The test is classed as cell-based.

As usually defined, the IC50 is the midpoint of a concentration-inhibition curve.

SMILES strings stand for the structures.

As for `CCCCC[C@H](O)/C=C/[C@H]1[C@H](O)CC(=O)[C@@H]1CCCCCCC(=O)O` [Alprostadil], it took 7.42 µM to reach half-maximal inhibition (IC50). For `CN(C)C(=O)COC(=O)Cc1ccc(OC(=O)c2ccc(NC(=N)N)cc2)cc1` [Camostat], the “inhibition of virus entry (in words)” value is on record as “failed to inhibit virus entry sufficiently” and the “maximum response (inhibition)” value turned out to be 50%. With `CN(C)CCCN1c2ccccc2Sc2ccc(Cl)cc21` [Chlorpromazine], the IC50 was found to be 9.63 µM. In the case of `Nc1nc(Cl)nc2c1ncn2[C@H]1C[C@H](O)[C@@H](CO)O1` [Cladribine], the midpoint of inhibition, the IC50, lay at 7.74 µM. The same measure, in the same setting: for `CC(=O)O[C@@]12CO[C@@H]1C[C@H](O)[C@@]1(C)C(=O)[C@H](O)C3=C(C)[C@@H](OC(=O)[C@H](O)[C@@H](NC(=O)OC(C)(C)C)c4ccccc4)C[C@@](O)([C@@H](OC(=O)c4ccccc4)[C@H]21)C3(C)C` [Docetaxel] the value was less than 0.08 µM; for `O=c1[nH]cc(F)c(=O)[nH]1` [Fluorouracil], 7.01 µM. For `N=C(N)c1ccc2cc(OC(=O)c3ccc(N=C(N)N)cc3)ccc2c1` [Nafamostat], the “maximum response (inhibition)” value is on record as 50%.

The values are drawn from publication PMC9108036 (Biomedicine & Pharmacotherapy, 2022).
